Patent US4657892A, “Pharmacologically active peptides” (priority 1983, dated 1987)
Entries after “also recorded” stand apart in the source; their conditions may differ. Read-outs that look alike come from different tables or passages of the source. Non-standard residues stand in square brackets, D forms with d. Residues, ends and D or L forms follow the SMILES beside them.

Columns and labels:
[1] = tested on: isolated guinea-pig ileum; conditions: * marked, from Castiglione et al., Peptides 2, p. 266, read-out: IC50 (* values described by Castiglione et al.); cited from earlier work
α-chymotrypsin = molecular target: T1, α-chymotrypsin (Bos taurus, UniProt P00766, DEL14-15/DEL147-148); assay: enzymatic stability against α-chymotrypsin, remaining activity assayed on guinea-pig ileum; type: in vitro ADME; conditions: 1 mg peptide, 50 μg α-chymotrypsin, Krebs-Ringer solution, 5 hours at 37° C.
T1 construct: purchased Serva, Heidelberg
Protocol: 1 mg of each of the peptides dermorphin, I, II, III and IV (table 1) were dissolved in 1 ml freshly prepared Krebs-Ringer solution and mixed together with 50 μg α-chymotrypsin (Serva, Heidelberg, dissolved in 50 μl Krebs-Ringer solution); immediately after mixing, a 100 μl aliquot was removed and heated up to 95° C. for 15 minutes. (The heating was employed in order to inactivate the enzyme). This aliquot removed, will be later used for reference as initial value (Zero-value of incubation time). The remaining 950 μl of the peptide/enzyme mixture were incubated for 5 hours at 37° C.; the incubation period was also terminated by heating up to 95° C.
After centrifugation identical aliquots of the supernatants were assayed quantitatively for their opiate-like effect and compared with the zero-value; and guinea-pig ileum was also used as assay system (as above described).

[2] = tested on: isolated guinea-pig ileum; assay: opioid activity in the electrically stimulated guinea-pig ileum preparation; type: cell-based; conditions: for rel. value Der. = 100 / rel. value Nor. = 100: relative potency; for rel. value Der. = 100: dermorphin IC50 = 100%; for rel. value Nor. = 100: normorphine IC50 = 100%
Text: As biological test system for determination of the opioid activity the ileum preparation of the guinea-pig was used (detailed description German application No. 29 21 216, p. 24). […] In addition for a better understanding the IC50 -value can be expressed as 100% for the opiates normorphine and dermorphin (DT-OS No. 30 34 897) and the relative activity of the single substances can be given in comparison to normorphine or dermorphine. The indication of the relative potency has the advantage that by this variations of the sensitivity of the assay are neutralized.
The (*) marked values of table 1 correspond to those which have been described by Castiglione et al. (Peptides, 2, p. 266, table 1, substances 1 and 3: column GPI=guinea-pig ileum preparation).
IC50 -values (nM), see description, of two peptides of the invention (III an IV) in comparison to those of the prior art (dermorphin,I,II) as measured in the isolated guinea-pig ileum. […] The inhibiting effect of the substances I, II, III, and IV was antagonized by addition of the specific opiate antagonist naloxone (final concentration in the organ bath 900 nM); upon further addition of the substances I to IV to the organ bath (in presence of naloxone) no further inhibition could be observed; the inhibiting effect of the substances I-IV has therefore to be considered as specific opiate-like.

SMILES	IC50 [1] [µM]	opiate-like activity remaining after incubation with α-chymotrypsin compared to zero-value (α-chymotrypsin)	rel. value Der. = 100 [2]	rel. value Nor. = 100 [2]	IC50 ([2]; Cavia porcellus, isolated guinea-pig ileum, 7 experiments, read-out: IC50 (inhibition of electrically induced contractions by 50%)) [µM]
C[C@@H](NC(=O)[C@@H](N)Cc1ccc(O)cc1)C(=O)N[C@@H](Cc1ccccc1)C(=O)NCC(=O)N[C@@H](Cc1ccc(O)cc1)C(=O)N1CCC[C@H]1C(=O)N[C@@H](CO)C(N)=O [Dermorphin]	0.0035	nearly fully destroyed	100	3143	–
Oc1ccc2c3c1O[C@H]1[C@@H](O)C=C[C@H]4[C@@H](C2)NCC[C@@]341 [Normorphine]	–	–	3.2	100	0.11
C[C@@H](NC(=O)[C@@H](N)Cc1ccc(O)cc1)C(=O)N[C@@H](Cc1ccccc1)C(=O)N1CCC[C@H]1C(=O)N[C@@H](Cc1ccc(O)cc1)C(N)=O [Substance I, Tyr--D-Ala--Phe--Pro--Tyr--NH2] (H-Y[dA]FPY-NH2)	–	higher stability than substance II	–	–	–
C[C@@H](NC(=O)[C@@H](N)Cc1ccc(O)cc1)C(=O)N[C@@H](Cc1ccccc1)C(=O)NCC(=O)N[C@@H](Cc1ccc(O)cc1)C(N)=O [Substance II, Tyr--D-Ala--Phe--Gly--Tyr--NH2] (H-Y[dA]FGY-NH2)	–	nearly fully destroyed	–	–	–
C[C@@H](NC(=O)[C@H](Cc1ccccc1)NC(=O)[C@@H](C)NC(=O)[C@@H](N)Cc1ccc(O)cc1)C(=O)N[C@@H](Cc1ccc(O)cc1)C(N)=O [Substance III, Tyr--D-Ala--Phe--D-Ala--Tyr--NH2] (H-Y[dA]F[dA]Y-NH2)	–	higher stability towards proteolytic enzymes (compared to II); also recorded: full opiate-like activity	–	–	–
C[C@@H](NC(=O)[C@H](Cc1ccccc1)NC(=O)[C@@H](C)NC(=O)[C@@H](N)Cc1ccc(O)cc1)C(=O)N[C@@H](Cc1ccccc1)C(N)=O [Substance IV, Tyr--D-Ala--Phe--D-Ala--Phe--NH2] (H-Y[dA]F[dA]F-NH2)	–	full opiate-like activity	–	–	–
